Earlier results on one molecule are cited in patent US6884908B2, “Process for isolation of hepatoprotective agent “oleanolic acid” from Lantana camera” (Council of Scientific & Industrial Research, priority 2003, dated 2005).

Molecules are shown by their SMILES.

Data set [1] relates to paw edema produced by dextran. Particulars: rats and mice.
Data set [2] concerns CCl4-induced liver parenchymal cell necrosis, steatosis and degeneration. Particulars: in vivo.
Data set [3] has as its system experimental hyperlipidemic rats. The note with it: 50 mg/kg, P.O. for 9 days.
Data set [4] has as its system azoxymethane-induced intestinal tumor. Particulars: rats, 200 ppm in diet for 3 weeks.
Data set [5] has as its system adjuvant induced arthritis. Particulars: rats and mice.

Take `CC1(C)CC[C@]2(C(=O)O)CC[C@]3(C)C(=CC[C@@H]4[C@@]5(C)CC[C@H](O)C(C)(C)[C@@H]5CC[C@]43C)[C@@H]2C1` [oleanolic acid, (3-O-β-hydroxy-olea-12-en-28-oic acid]: the “paw edema produced by dextran” value in data set [1] was “inhibiting”. Also, the “CCl4-induced liver parenchymal cell necrosis, steatosis and degeneration” value in data set [2] is recorded as “decreases”. Further, in data set [3], the “decrease of elevated blood cholesterol level” value was “more than 40%” and the “decrease of elevated β-lipoprotein level” value is listed as “more than 40%”. In addition, the “incidence and multiplicity of azoxymethane-induced intestinal tumor” value in data set [4] was “decreases the incidence and multiplicity”. Further, the adjuvant induced arthritis result in data set [5] is listed as “suppressing”.
